Laboratory results: patent US12662490B2, “Heterocyclic compounds” (Hoffmann-La Roche Inc., priority 2019, dated 2026)

Molecular target: T1, MAGL (Homo sapiens, UniProt Q99685)
T1 sequence (Q99685 1-303): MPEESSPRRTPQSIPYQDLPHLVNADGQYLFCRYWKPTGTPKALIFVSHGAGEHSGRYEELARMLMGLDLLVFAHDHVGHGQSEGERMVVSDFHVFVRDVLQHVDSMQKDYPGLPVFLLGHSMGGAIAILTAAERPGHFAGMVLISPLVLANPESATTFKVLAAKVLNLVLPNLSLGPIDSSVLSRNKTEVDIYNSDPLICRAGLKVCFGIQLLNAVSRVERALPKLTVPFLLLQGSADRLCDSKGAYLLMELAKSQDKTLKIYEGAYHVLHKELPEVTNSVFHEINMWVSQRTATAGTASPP
Experiment: 2-AG assay (MAGL inhibitory activity; hydrolysis of 2-arachidonoylglycerol to arachidonic acid followed by mass spectrometry)
Format: biochemical
Conditions: 15 min preincubation at RT, 8 μM 2-arachidonoylglycerol, 30 min at RT, RapidFire MS readout
Procedure, shortened: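 Compounds (final 12.5 μM to […], 3-fold steps) preincubated 15 min at RT with MAGL ([…]) in 50 mM TRIS, 1 mM EDTA, Tween buffer. Reaction started with 8 μM 2-arachidonoylglycerol, run 30 min at RT, quenched with ACN containing d8-arachidonic acid. Arachidonic acid quantified by RapidFire SPE-triple quadrupole MS (negative ESI), activity from arachidonic acid/d8 ratio.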

IC50 [nM] | SMILES
1480 | COc1ccc(F)c(C(=O)N2CCN3C[C@H](c4ccc(F)c(Cl)c4)OC[C@@H]3C2)c1Cl [Example 159, [(3S,9aS)-3-(3-chloro-4-fluoro-phenyl)-3,4,6,7,9,9a-hexahydro-1H-pyrazino[2,1-c][1,4]oxazin-8-yl]-(2-chloro-6-fluoro-3-methoxy-phenyl)methanone]
1600 | COc1ccc(-c2nc([C@]3(O)CN4CCN(C(=O)c5cccc(OC)c5Cl)C[C@H]4CO3)cs2)cn1 [Example 160, [(3S,9aS)-3-hydroxy-3-[2-(6-methoxy-3-pyridyl)thiazol-4-yl]-1,4,6,7,9,9a-hexahydropyrazino[2,1-c][1,4]oxazin-8-yl]-(2-chloro-3-methoxy-phenyl)methanone]
